Measured values: patent US11773094B2, “Farnesoid X receptor agonists and uses thereof” (Metacrine, Inc., priority 2018, dated 2023)

Molecular target: T1, hFXR (Homo sapiens, UniProt Q96RI1)
T1 construct: expressed in transfected cells; host or cells: CV-1 cells
T1 sequence (Q96RI1 1-486): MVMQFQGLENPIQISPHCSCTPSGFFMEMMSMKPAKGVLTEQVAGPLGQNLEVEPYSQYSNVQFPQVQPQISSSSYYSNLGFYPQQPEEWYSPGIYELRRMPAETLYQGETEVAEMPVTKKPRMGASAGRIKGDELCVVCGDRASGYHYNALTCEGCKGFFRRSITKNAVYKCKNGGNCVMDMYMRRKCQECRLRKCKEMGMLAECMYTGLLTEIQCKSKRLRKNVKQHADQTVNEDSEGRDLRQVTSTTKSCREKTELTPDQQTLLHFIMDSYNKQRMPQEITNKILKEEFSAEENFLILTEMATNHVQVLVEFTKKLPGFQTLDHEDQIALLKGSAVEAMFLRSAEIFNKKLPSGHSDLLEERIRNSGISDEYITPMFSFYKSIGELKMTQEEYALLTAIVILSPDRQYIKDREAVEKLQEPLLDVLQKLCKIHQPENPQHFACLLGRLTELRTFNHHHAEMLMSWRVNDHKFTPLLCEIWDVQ
T1 sequence (P19793 1-462 partner): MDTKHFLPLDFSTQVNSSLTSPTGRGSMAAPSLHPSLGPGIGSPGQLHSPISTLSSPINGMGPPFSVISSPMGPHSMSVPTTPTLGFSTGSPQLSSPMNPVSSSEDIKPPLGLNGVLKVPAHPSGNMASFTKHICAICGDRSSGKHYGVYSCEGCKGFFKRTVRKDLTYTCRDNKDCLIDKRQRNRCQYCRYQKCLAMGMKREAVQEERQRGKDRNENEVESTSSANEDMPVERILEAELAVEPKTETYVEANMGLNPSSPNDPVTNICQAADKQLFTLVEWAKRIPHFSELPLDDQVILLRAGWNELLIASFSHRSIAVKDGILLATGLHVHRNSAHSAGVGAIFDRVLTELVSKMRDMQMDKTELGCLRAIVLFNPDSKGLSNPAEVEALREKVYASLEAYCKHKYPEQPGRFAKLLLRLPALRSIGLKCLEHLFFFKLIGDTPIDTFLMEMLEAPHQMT
Assay: In Vitro FXR Assay (TK): TK-ECRE-luc reporter in transfected CV-1 cells
Assay type: cell-based
Conditions: CV-1 cells transfected with hFXR, hRXR, pCMX-YFP, 18 hrs incubation, luminescence
Procedure: Example B-1: In Vitro FXR Assay (TK)
CV-1 cells were seeded at a density of 2,000,000 cells in a T175 flask with DMEM+10% charcoal double-stripped FBS and incubated at 37° C. in 5% CO2 for 18 h (O/N).
After 18 h of incubation, the medium in the T175 flask was changed with fresh DMEM+10% charcoal super-stripped serum. In a polypropylene tube, 2500 μL OptiMEM (Life Technologies, Cat #31985-062) was combined with expression plasmids for hFXR, hRXR, TK-ECRE-luc and pCMX-YFP. The tube was then briefly vortexed and incubated at room temperature for 5 minutes. Transfection reagent (X-tremeGENE HP from Roche, Cat #06 366 236 001) was added to the OptiMEM/plasmid mixture vortexed and incubated at room temperature for 20 minutes. Following incubation, the transfection reagent/DNA mixture complex was added to cells in the T175 flask and the cells were incubated at 37° C. in 5% CO2 for 18 h (O/N).
Compounds were serially diluted in DMSO and added to transfected CV-1 cells. The cells were then incubated for 18 hrs. The next day cells were lysed and examined for luminescence.

Row | SMILES | EC50 [µM]
1 | COc1ccc(C23CCC(CN(c4cccc(-c5cnn(C(C)(C)C)c5)n4)C(=O)[C@H]4CC[C@H](OC(=O)N5CC(O)C5)CC4)(CC2)CC3)cc1C [Compound 1.15, 4-((6-(1-(tert-Butyl)-1H-pyrazol-4-yl)pyridin-2-yl)((4-(4-methoxy-3-methylphenyl)bicyclo[2.2.2]octan-1-yl)methyl)carbamoyl) (trans-cyclohexyl) 3-hydroxyazetidine-1-carboxylate] | 0.01 to 1
2 | COc1ccc([C@H]2CC[C@H](CN(c3cc(-c4coc(C(C)(C)C)n4)ccn3)C(=O)[C@H]3CC[C@H](OC(=O)NC4CCOCC4)CC3)CC2)cc1C [Compound 1.07, trans-4-((4-(2-(tert-Butyl)oxazol-4-yl)pyridin-2-yl)(((trans)-4-(4-methoxy-3-methylphenyl)cyclohexyl)methyl)carbamoyl) cyclohexyl (tetrahydro-2H-pyran-4-yl)carbamate] | 0.01 to 1
3 | COc1ccc(C23CCC(CN(c4ccnc(-c5cnn(C(C)(C)C)c5)c4)C(=O)[C@H]4CC[C@H](OC(=O)N5CC(O)C5)CC4)(CC2)CC3)cc1C [Compound 1.13, 4-((2-(1-(tert-Butyl)-1H-pyrazol-4-yl)pyridin-4-yl)((4-(4-methoxy-3-methylphenyl)bicyclo[2.2.2]octan-1-yl)methyl)carbamoyl) (trans-cyclohexyl) 3-hydroxyazetidine-1-carboxylate] | 0.01 to 1
4 | COc1ccc([C@H]2CC[C@H](CN(c3cc(-c4cnn(C(C)(C)C)c4)ccn3)C(=O)[C@H]3CC[C@H](OC(=O)N4CC(O)C4)CC3)CC2)cc1C [Compound 1.08, trans-4-((4-(1-(tert-Butyl)-1H-pyrazol-4-yl)pyridin-2-yl)((trans-4-(4-methoxy-3-methylphenyl)cyclohexyl)methyl)carbamoyl) cyclohexyl 3-hydroxyazetidine-1-carboxylate] | 0.01 to 1
5 | COc1ccc([C@H]2CC[C@H](CN(c3cc(-c4coc(C(C)(C)C)n4)ccn3)C(=O)[C@H]3CC[C@H](OC(=O)N4CCC(O)CC4)CC3)CC2)cc1C [Compound 1.06, trans-4-((4-(2-(tert-Butyl)oxazol-4-yl)pyridin-2-yl)(((trans)-4-(4-methoxy-3-methylphenyl)cyclohexyl)methyl)carbamoyl) cyclohexyl 4-hydroxypiperidine-1-carboxylate] | 0.01 to 1
6 | COc1ccc(C23CCC(CN(c4cc(-c5cnn(C(C)(C)C)c5)ccn4)C(=O)[C@H]4CC[C@H](OC(=O)N5CCC(N(C)C)C5)CC4)(CC2)CC3)cc1C (stereo partly drawn) [Compound 2.26, 4-((4-(1-(tert-Butyl)-1H-pyrazol-4-yl)pyridin-2-yl)((4-(4-methoxy-3-methylphenyl)bicyclo[2.2.2]octan-1-yl)methyl)carbamoyl)cyclohexyl 3-(dimethylamino)pyrrolidine- trans-1-carboxylate] | ≤ 0.01
7 | CCC(C)(C)n1cc(-c2ccnc(N(CC34CCC(c5ccc(OC)c(C)c5)(CC3)CC4)C(=O)[C@H]3CC[C@H](OC(=O)N4CC(O)C4)CC3)c2)cn1 [Compound 4, 4-(((4-(4-Methoxy-3-methylphenyl)bicyclo[2.2.2]octan-1-yl)methyl)(4-(1-(tert-pentyl)-1H-pyrazol-4-yl)pyridin-2-yl)carbamoyl) cyclohexyl trans-3-hydroxyazetidine-1-carboxylate] | ≤ 0.01
8 | COc1ccc(C23CCC(CN(c4cc(-c5cnc(C(C)(C)C)s5)ccn4)C(=O)[C@H]4CC[C@H](OC(=O)NCCC(C)(C)O)CC4)(CC2)CC3)cc1C [Compound 2.08, 4-((4-(2-(tert-Butyl)thiazol-5-yl)pyridin-2-yl)((4-(4-methoxy-3-methylphenyl)bicyclo[2.2.2]octan-1-yl)methyl)carbamoyl) (trans-cyclohexyl) (3-hydroxy-3-methylbutyl)carbamate] | ≤ 0.01
9 | CCC(C)(CC)n1cc(-c2ccnc(N(CC34CCC(c5ccc(OC)c(C)c5)(CC3)CC4)C(=O)[C@H]3CC[C@H](OC(=O)N4CCC(O)CC4)CC3)c2)cn1 [Compound 4.06, 4-(((4-(4-Methoxy-3-methylphenyl)bicyclo[2.2.2]octan-1-yl)methyl)(4-(1-(3-methylpentan-3-yl)-1H-pyrazol-4-yl)pyridin-2-yl)carbamoyl)cyclohexyl trans-4-hydroxypiperidine-1-carboxylate] | ≤ 0.01
10 | COc1ccc(C23CCC(CN(c4cncc(-c5cnn(C(C)(C)C)c5)c4)C(=O)[C@H]4CC[C@H](OC(=O)N5CC(O)C5)CC4)(CC2)CC3)cc1C [Compound 1.14, 4-((5-(1-(tert-Butyl)-1H-pyrazol-4-yl)pyridin-3-yl)((4-(4-methoxy-3-methylphenyl)bicyclo[2.2.2]octan-1-yl)methyl)carbamoyl) (trans-cyclohexyl) 3-hydroxyazetidine-1-carboxylate] | ≤ 0.01
11 | COc1ccc([C@H]2CC[C@H](CN(c3cc(-c4coc(C(C)(C)C)n4)ccn3)C(=O)[C@H]3CC[C@H](OC(=O)N4CC(O)C4)CC3)CC2)cc1C [Compound 1.04, trans-4-((4-(2-(tert-Butyl)oxazol-4-yl)pyridin-2-yl)(((trans)-4-(4-methoxy-3-methylphenyl)cyclohexyl)methyl)carbamoyl) cyclohexyl 3-hydroxyazetidine-1-carboxylate] | 0.01 to 1

Next, values leading:

Row | EC50 [µM] | SMILES
12 | ≤ 0.01 | COc1ccc(C23CCC(CN(c4cc(-c5cnn(C(C)(C)C)c5)ccn4)C(=O)[C@H]4CC[C@H](OC(=O)N5CC[C@H](O)C5)CC4)(CC2)CC3)cc1C [Compound 2.34, (S)-4-((4-(1-(tert-Butyl)-1H-pyrazol-4-yl)pyridin-2-yl)((4-(4-methoxy-3-methylphenyl)bicyclo[2.2.2]octan-1-yl)methyl)carbamoyl) cyclohexyl trans-3-hydroxypyrrolidine-1-carboxylate]
13 | ≤ 0.01 | COc1ccc(C23CCC(CN(c4cc(-c5cnn(C(C)(C)C)c5)ccn4)C(=O)[C@H]4CC[C@H](OC(=O)NCCCO)CC4)(CC2)CC3)cc1C [Compound 2.31, 4-((4-(1-(tert-Butyl)-1H-pyrazol-4-yl)pyridin-2-yl)((4-(4-methoxy-3-methylphenyl)bicyclo[2.2.2]octan-1-yl)methyl)carbamoyl) (trans-cyclohexyl) (3-hydroxypropyl)carbamate]
14 | ≤ 0.01 | COc1ccc(C23CCC(CN(c4cc(-c5cnc(C(C)(C)C)s5)ccn4)C(=O)[C@H]4CC[C@H](OC(=O)N5CC(O)C5)CC4)(CC2)CC3)cc1C [Compound 3.07, 4-((4-(2-(tert-Butyl)thiazol-5-yl)pyridin-2-yl)((4-(4-methoxy-3-methylphenyl)bicyclo[2.2.2]octan-1-yl)methyl)carbamoyl) cyclohexyl trans-3-hydroxyazetidine-1-carboxylate]
15 | ≤ 0.01 | COc1ccc(C23CCC(CN(c4cc(-c5cnn(C(C)(C)C)c5)c(F)cn4)C(=O)[C@H]4CC[C@H](OC(=O)N5CC(O)C5)CC4)(CC2)CC3)cc1C [Compound 1.12, 4-((4-(1-(tert-Butyl)-1H-pyrazol-4-yl)-5-fluoropyridin-2-yl)((4-(4-methoxy-3-methylphenyl)bicyclo[2.2.2]octan-1-yl)methyl)carbamoyl) (trans-cyclohexyl) 3-hydroxyazetidine-1-carboxylate]
16 | ≤ 0.01 | COc1ccc(C23CCC(CN(c4cc(-c5cnn(C(C)(C)C)c5)ccn4)C(=O)[C@H]4CC[C@H](OC(=O)NC5COC5)CC4)(CC2)CC3)cc1C [Compound 2.28, 4-((4-(1-(tert-Butyl)-1H-pyrazol-4-yl)pyridin-2-yl)((4-(4-methoxy-3-methylphenyl)bicyclo[2.2.2]octan-1-yl)methyl)carbamoyl) (trans-cyclohexyl) oxetan-3-ylcarbamate]
17 | ≤ 0.01 | COc1ccc([C@H]2CC[C@H](CN(c3cc(-c4cnn(C(C)(C)C)c4)ccn3)C(=O)[C@H]3CC[C@H](OC(=O)N4CC(O)C4(C)C)CC3)CC2)cc1C (stereo partly drawn) [Compound 1.09, trans-4-((4-(1-(tert-Butyl)-1H-pyrazol-4-yl)pyridin-2-yl)((trans-4-(4-methoxy-3-methylphenyl)cyclohexyl)methyl)carbamoyl) cyclohexyl 3-hydroxy-2,2-dimethylazetidine-1-carboxylate]
